Test [1] deals with histologic abnormalities, especially hepatic fibrosis. Particulars: rats on a choline-deficient L-amino acid-defined diet; cited from earlier work.
Test [2] concerns NQO1 specific enzyme activity in BEAS-2B cells. The test is described as follows: BEAS-2B NQO1 MTT Assay. Conditions: NQO1 specific activity induction, BEAS-2B cells, 48 hours, read-out: EC50. Format: cell-based. From the text:
NAD(P)H:quinone oxidoreductase 1 (NQO1), also called DT diaphorase, is a homodimeric FAD-containing enzyme that catalyzes obligatory NAD(P)H-dependent two-electron reductions of quinones and protects cells against the toxic and neoplastic effects of free radicals and reactive oxygen species arising from one-electron reductions. The transcription of NQO1 is finely regulated by NRF2, and thus NQO1 activity is a good marker for NRF2 activation. On day one, frozen BEAS-2B cells (ATCC) were thawed in a water bath, counted, and re-suspended at a concentration of 250,000 cells/mL. Fifty microliters of cells were plated in 384 well black clear-bottomed plates. Plates were incubated at 37° C., 5% CO2 overnight. On day two, plates were centrifuged and 50 nL of compound or controls were added to the cells. Plates were then incubated at 37° C., 5% CO2 for 48 hours. On day four, medium was aspirated from the plate and crude cell lysates were made by adding 13 uL of 1× Cell Signaling Technologies lysis buffer with 1 Complete, Mini, EDTA-free Protease Inhibitor Tablet (Roche) for each 10 mL of lysis buffer. After lysis plates were incubated for 20 minutes at room temperature. Two microliters of lysate were removed for use in Cell Titer Glo assay (Promega) and MTT cocktail was prepared (Prochaska et. al. 1998) for measurement of NQO1 activity. Fifty microliters of MTT cocktail is added to each well, plate is centrifuged, and analyzed on an Envision plate reader (Perkin Elmer) using Absorbance 570 nm label for 30 minutes. Product formation was measured kinetically and the pEC50 of NQO1 specific activity induction was calculated by plotting the change in absorbance (Delta OD/min) versus the log of compound concentration followed by 3-parameter fitting. pEC50 is the negative log of the EC50.

Test [3] deals with COPD macrophages and alveolar macrophages from cigarette smoke-exposed mice. Particulars: cited from earlier work.
Another test concerns cortical damage. Conditions: rats, cerebral ischemia-reperfusion model; cited from earlier work.
Test [4] concerns cortical glutathione levels. Particulars: NRF2 wild-type but not KO mice; cited from earlier work.

The structures appear in SMILES notation. Where a name gives a salt, the structure may show the parent alone. Read-outs that look alike come from different tables or passages of the source.

`Cc1c(-c2cnccn2)ssc1=S` [oltipraz]: the “progression of histologic abnormalities, especially hepatic fibrosis” value in test [1] is on record as “significantly attenuated”.
As usually defined, the EC50 is the concentration that produces a half-maximal response. Regarding `C[C@H]1Cc2ccc(C(F)(F)F)cc2S(=O)(=O)N([C@@H]2CCc3c2cccc3-n2ncc(C(=O)O)c2[C@@H]2C[C@H]2c2cn(C)nn2)C1` [Example 26b, 1-((R)-1-((S)-4-Methyl-1,1-dioxido-8-(trifluoromethyl)-4,5-dihydrobenzo[f][1,2]thiazepin-2(3H)-yl)-2,3-dihydro-1H-inden-4-yl)-5-((1R,2R)-2-(1-methyl-1H-1,2,3-triazol-4-yl)cyclopropyl)-1H-pyrazole-4-carboxylic acid], the EC50 in test [2] (Homo sapiens) was 1000 to 10000 nM.
As for `C[S+]([O-])CCCCN=C=S` (centres unmarked) [Sulforaphane], the “expression of Macrophage Receptor with Collagenous structure (MARCO)” value in test [3] (COPD macrophages and alveolar macrophages from cigarette smoke-exposed mice) is listed as “increases”. In test [3] (ex vivo and in vivo), the “bacterial phagocytosis (Pseudomonas aeruginosa, non-typable Haemophilus influenzae) and bacterial clearance” value is listed as “improving”.
Turning to `CC(C)(C)c1cc(O)ccc1O` [tert-butylhydroquinone], the cortical damage entry with cortical damage is reported as “reduced cortical damage”. Moreover, the cortical glutathione levels entry in test [4] is on record as “increased in NRF2 wild-type but not KO mice”.
With `CCOc1ccc(Br)cc1CN(Cc1cccc(-n2ncc(C(=O)O)c2[C@@H]2C[C@H]2c2cn(C)nn2)c1)C1CC1` (relative stereo) [Example 55, 1-(3-(((5-bromo-2-ethoxybenzyl)cyclo-propyl)amino)methyl)phenyl)-5-((trans)-2-(1-methyl-1H-1,2,3-triazol-4-yl)cyclopropyl)-1H-pyrazole-4-carboxylic acid trifluoroacetate], the EC50 in test [2] lay in the range of 100 to 1000 nM.
Turning to `O=C(NCc1ccccn1)Nc1nnc(-c2ccco2)o1` [NK-252], in test [1], the “progression of histologic abnormalities, especially hepatic fibrosis” value is reported as “significantly attenuated”.
